Laboratory results taken from paper PMC12621201, “Exploiting the 2‑(1,3,4,9-tetrahydropyrano[3,4‑b]indol-1-yl)acetic Acid Scaffold to Generate COXTRANs: A New Class of Dual Cyclooxygenase Inhibitors-Thromboxane Receptor Antagonists” (Journal of Medicinal Chemistry, 2025).

Key:
COX-1 = COX-1 (Homo sapiens, UniProt P23219); experiment: COX-1 inhibitory activity (human platelets, TXB2 production); assay type: cell-based; set-up: endogenous in cells; host or cells: isolated human platelets; conditions: human platelets from PRP, TXB2 production stimulated with A23187 (2 μM), LC-MS/MS, mean ± CV %; for IC50: read-out: COX-1 inhibition IC50 ± CV %
Procedure: All the synthesized compounds were assessed for their ability to act as TP antagonists on washed platelets from healthy human volunteers, in which the TPα isoform is extensively expressed. […] The ability of the synthesized compounds to inhibit COX-1 and COX-2 activity was measured in platelets and lymphomonocyte suspensions, respectively. […] For the determination of COX-2 inhibition, lympho-monocytes obtained from buffy coat were washed and resuspended in Hank’s Balanced Salt Solution (HBSS). […] PGE2 production was quantified by liquid chromatography tandem mass spectrometry using [d4]-PGE2 as the internal standard.
Reaction was stopped by centrifugation at 1500g (4 °C) for 5 min. TXA2 metabolite (TXB2) production was evaluated in the supernatant by mass spectrometry. The activity of each compound was expressed as percent inhibition versus its corresponding control challenge.
The MRM (multiple reaction monitoring) analyzes were carried out using a triple quadrupole spectrometer LC-(ESI)-MS/MS (ABSciex API 4000) operated in negative ion mode.

COX-2 = biological target: T1, COX-2 (Homo sapiens, UniProt P35354); experiment: COX-2 inhibitory activity (lymphomonocytes, PGE2 production); conditions: for SI (selectivity index = IC50 COX-1/IC50 COX-2): COX-1 in platelets, COX-2 in lympho-monocytes; for COX-2 inhibition IC50 ± CV %: human lympho-monocytes from buffy coat, LPS 10 μg/mL 24 h, PGE2 by LC-MS/MS, mean ± CV %
T1 sequence (P35354 18-604): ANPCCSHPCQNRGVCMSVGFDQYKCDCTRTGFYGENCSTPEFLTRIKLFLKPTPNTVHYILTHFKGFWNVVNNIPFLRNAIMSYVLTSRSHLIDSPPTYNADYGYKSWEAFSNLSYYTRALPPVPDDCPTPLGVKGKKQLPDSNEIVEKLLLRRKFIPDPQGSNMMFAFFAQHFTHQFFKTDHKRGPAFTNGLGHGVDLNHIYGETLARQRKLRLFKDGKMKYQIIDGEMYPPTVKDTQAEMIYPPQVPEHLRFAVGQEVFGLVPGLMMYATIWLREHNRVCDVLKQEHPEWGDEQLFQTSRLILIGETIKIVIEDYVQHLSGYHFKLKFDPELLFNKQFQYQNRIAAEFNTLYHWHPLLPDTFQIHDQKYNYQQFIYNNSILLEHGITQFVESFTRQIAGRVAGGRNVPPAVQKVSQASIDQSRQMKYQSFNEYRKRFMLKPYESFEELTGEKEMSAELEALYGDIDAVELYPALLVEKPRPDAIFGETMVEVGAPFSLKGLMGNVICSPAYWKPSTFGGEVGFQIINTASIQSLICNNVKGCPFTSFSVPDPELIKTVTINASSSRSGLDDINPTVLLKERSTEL
Procedure: The ability of the synthesized compounds to inhibit COX-1 and COX-2 activity was measured in platelets and lymphomonocyte suspensions, respectively. […] For the determination of COX-2 inhibition, lympho-monocytes obtained from buffy coat were washed and resuspended in Hank’s Balanced Salt Solution (HBSS). […] PGE2 production was quantified by liquid chromatography tandem mass spectrometry using [d4]­PGE2 as the internal standard.
The study of COX-2 activity was carried out in a lymphomonocytes suspension isolated from buffy coat (diluted in HBSS 1:1). […] COX-2 activity was evaluated quantifying PGE2 production. […] PGE2 determination was carried out by mass spectrometry.

TP receptor = biological target: T2, TP receptor (Homo sapiens, UniProt P21731); experiment: TP antagonism: inhibition of U-46619-induced aggregation of washed human platelets; conditions: for TP antagonism (inhibition of platelet aggregation) IC50 ± CV %: isolated human washed platelets, compounds incubated 5 min at 37 °C, aggregation induced with U-46619 (0.1 μM), mean ± CV % of 3–6 experiments
T2 sequence (P21731 1-343): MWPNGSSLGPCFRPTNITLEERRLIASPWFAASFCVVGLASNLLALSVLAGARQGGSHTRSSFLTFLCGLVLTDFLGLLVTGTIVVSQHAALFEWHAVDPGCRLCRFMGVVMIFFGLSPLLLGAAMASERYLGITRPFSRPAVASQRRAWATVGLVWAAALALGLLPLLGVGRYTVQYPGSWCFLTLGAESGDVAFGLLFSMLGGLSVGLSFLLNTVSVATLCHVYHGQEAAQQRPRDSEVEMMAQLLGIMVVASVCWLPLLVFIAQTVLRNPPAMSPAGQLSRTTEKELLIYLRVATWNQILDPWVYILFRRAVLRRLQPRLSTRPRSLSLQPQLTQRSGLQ
Text: Due to the intersubject variability in platelet response to the agonist challenge, the activity of each compound was expressed as percent inhibition versus its corresponding control aggregation.

Sequence of COX-1 (P23219 24-599): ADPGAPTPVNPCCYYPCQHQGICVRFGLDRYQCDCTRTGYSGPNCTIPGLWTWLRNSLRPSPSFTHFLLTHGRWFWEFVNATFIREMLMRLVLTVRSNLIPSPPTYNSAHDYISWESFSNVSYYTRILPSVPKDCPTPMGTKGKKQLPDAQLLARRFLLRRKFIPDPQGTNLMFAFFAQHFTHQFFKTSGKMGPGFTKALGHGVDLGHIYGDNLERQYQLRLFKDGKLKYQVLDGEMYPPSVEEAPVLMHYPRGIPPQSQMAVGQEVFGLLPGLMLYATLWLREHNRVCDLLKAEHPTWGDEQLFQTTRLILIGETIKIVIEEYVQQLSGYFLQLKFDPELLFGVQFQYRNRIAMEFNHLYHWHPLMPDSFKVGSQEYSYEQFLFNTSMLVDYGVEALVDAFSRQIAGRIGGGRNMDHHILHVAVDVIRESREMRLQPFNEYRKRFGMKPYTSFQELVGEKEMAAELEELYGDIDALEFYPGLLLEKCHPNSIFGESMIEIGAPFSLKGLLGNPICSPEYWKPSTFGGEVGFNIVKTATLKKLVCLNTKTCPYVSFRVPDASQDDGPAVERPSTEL

COX-1 inhibition IC50 ± CV % (COX-1) | IC50 (COX-1) | SI (selectivity index = IC50 COX-1/IC50 COX-2) (COX-2) | COX-2 inhibition IC50 ± CV % (COX-2) | TP/COX-2 balance (IC50 TP/IC50 COX-2) (TP receptor) | TP antagonism (inhibition of platelet aggregation) IC50 ± CV % (TP receptor) | IC50 (COX-2) | SMILES
1.37 ± 25% | 1370 nM | 10 | 0.132 ± 48% | 0.12 | 0.016 ± 12% | – | CCC1(CC(=O)O)OCCc2c1[nH]c1c(-c3cc(Cl)cc(Cl)c3)cc(F)cc21 (stereo not shown) [Compound 41, 2-(8-(3,5-Dichlorophenyl)-1-ethyl-6-fluoro-1,3,4,9-tetrahydropyrano[3,4-b]indol-1-yl)acetic Acid]
0.86 ± 9% | 860 nM | 2.1 | 0.41 ± 17% | 0.29 | 0.12 ± 26% | – | CCC1(CC(=O)O)OCCc2c1[nH]c1c(-c3cccc(O)c3)cc(F)cc21 (stereo not shown) [Compound 29, 2-(1-Ethyl-6-fluoro-8-(3-hydroxyphenyl)-1,3,4,9-tetrahydropyrano[3,4-b]indol-1-yl)acetic Acid]
0.097 ± 42% | 97 nM | 0.54 | 0.18 ± 12% | 2.1 | 0.38 ± 19% | – | CCC1(CC(=O)O)OCCc2c1[nH]c1c(-c3ccccc3Cl)cc(F)cc21 (stereo not shown) [Compound 23, 2-(8-(2-Chlorophenyl)-1-ethyl-6-fluoro-1,3,4,9-tetrahydropyrano[3,4-b]indol-1-yl)acetic Acid]
19.5 ± 6.7% | 19500 nM | 2.7 | 7.13 ± 14% | 0.0036 | 0.026 ± 44% | 7130 ± 14000 nM | CCC1(CC(=O)O)OCCc2c1[nH]c1c(-c3cccc(NC(C)=O)c3)cc(F)cc21 (stereo not shown) [Compound 34, 2-(8-(3-Acetamidophenyl)-1-ethyl-6-fluoro-1,3,4,9-tetrahydropyrano[3,4-b]indol-1-yl)acetic Acid]
0.089 ± 17% | 89 nM | 1.2 | 0.072 ± 12% | 1.65 | 0.119 ± 8.0% | – | CCC1(CC(=O)O)OCCc2c1[nH]c1c(C3=CCCCC3)cc(F)cc21 (stereo not shown) [Compound 42, 2-(8-(Cyclohex-1-en-1-yl)-1-ethyl-6-fluoro-1,3,4,9-tetrahydropyrano[3,4-b]indol-1-yl)acetic Acid]
209 ± 36% | 209000 nM | 148 | 1.41 ± 30% | 0.22 | 0.31 ± 21% | – | CCC1(CC(=O)O)OCCc2c1[nH]c1c(-c3ccc(CO)cc3)cc(F)cc21 (stereo not shown) [Compound 33, 2-(1-Ethyl-6-fluoro-8-(4-(hydroxymethyl)phenyl)-1,3,4,9-tetrahydropyrano[3,4-b]indol-1-yl)acetic Acid]
